Assay results reported in patent US8242126B2, “Quinazolinedione derivatives, preparation thereof and therapeutic uses thereof” (Sanofi, priority 2007, dated 2012).
Where two headings read alike, the source gives them in different places.

Legend:
[1] = system: Human peripheral blood mononuclear cells (PBMNCs); test: Inhibition of T cell proliferation: [3H]-thymidine incorporation in PBMNCs activated by anti-CD3 and anti-CD28; assay type: cell-based; details: PBMC, 72 h + 8 h [3H]-thymidine, mean of the three experiments
Method: Human peripheral blood mononuclear cells (PBMNCs) were separated from the blood of healthy donors using a centrifuging gradient on a Ficoll-Paque™ Plus (GE Healthcare Bio-Sciences AB code 17-1440-03, Uppsala). A mixture of 5.0 ml of blood and 5.0 ml of phosphate buffered saline (PBS Gibco 14190) was deposited on 10.0 ml of Ficoll-Paque in a 50 ml Blue max tube (Becton Dickinson 352070) and centrifuged with 900 g for 30 min. The band of PBMNCs was withdrawn, washed in PBS and then centrifuged with 900 g for 10 minutes. Finally, the PBMNCs were suspended (2.5×10^5 cells/ml) in an RPMI 1640 complete medium+Glutamax (Gibco 61870) additivated with 10% of FCS, the complement of which has been heat inactivated, and with penicillin-streptomycin (Gibco 15140).
The PBMNCs were cultured in flat-bottomed 96-well plates, in a proportion of 0.5×10^5 cells/well in 200 μl of RPMI 1640 complete medium. The cells were activated by two monoclonal antibodies, one of anti-CD3 specificity, 20 ng/ml (Pharmingen 555329), and the other of anti-CD28 specificity, 200 ng/ml (Pharmingen 555725), in the presence of PDE7 inhibitors at five different concentrations, 10 μM, 3.3 μM, 1.1 μM, 0.36 μM and 0.12 μM, or of cyclosporin A, which acts as positive control of the halting of proliferation. […] After incubating for an additional 8 hours, the PBMNCs were collected on a Tomtec cell collector (Wallac) using a glass fibre filter (Wallac 1450-421), and incorporation of the [^3H]-thymidine in the nucleus of the cells was measured using a Microbeta 1450-Trilux (Wallac). The inhibition of the proliferation, expressed as percentage, was calculated using the following equation: 100−(cpm mean value of the cells in the presence of the compound/cpm mean value of the cells in the absence of the compound)×100. […]

Human PDE7 = molecular target: T1, Human PDE7 (Homo sapiens, UniProt Q13946); test: PDE7 enzymatic assay (radioactive cAMP / 5′-AMP separation by TLC on PEI cellulose); assay type: biochemical
T1 construct: Human PDE7 was partially purified from the HUT-78 cell line; endogenous in cells
T1 sequence (Q13946 whole entry): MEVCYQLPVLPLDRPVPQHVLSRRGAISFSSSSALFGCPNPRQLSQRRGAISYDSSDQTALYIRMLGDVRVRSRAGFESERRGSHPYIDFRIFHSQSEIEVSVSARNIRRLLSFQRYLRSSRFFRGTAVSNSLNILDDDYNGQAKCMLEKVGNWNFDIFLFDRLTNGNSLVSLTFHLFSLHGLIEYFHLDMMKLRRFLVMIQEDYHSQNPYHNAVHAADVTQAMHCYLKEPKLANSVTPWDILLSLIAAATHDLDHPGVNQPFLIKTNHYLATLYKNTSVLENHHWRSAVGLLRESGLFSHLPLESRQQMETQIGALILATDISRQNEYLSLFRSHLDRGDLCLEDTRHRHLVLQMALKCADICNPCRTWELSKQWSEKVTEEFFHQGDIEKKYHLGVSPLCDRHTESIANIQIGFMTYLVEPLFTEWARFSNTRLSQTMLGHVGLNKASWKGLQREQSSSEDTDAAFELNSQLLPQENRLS
Method: The ability of the compounds of formula (I) to inhibit PDE7 is measured using an enzymatic assay based on the separation of radioactive cAMP (substrate of PDE7) from the radioactive 5′-AMP (product of the enzymatic reaction) by thin layer chromatography on polyethyleneimine (PEI) cellulose, after halting the enzymatic reaction. The 5′-AMP is extracted quantitatively from the PEI cellulose and its radioactivity is measured using a liquid scintillation counter.
The inhibitory activity of the compounds of formula (I) with regard to PDE7 is represented by the inhibition constant IC50, defined as the concentration of the compound (inhibitor) tested in the assay which makes it possible to reduce the enzymatic activity of PDE7 by 50%. The lower the IC50 values, the greater the inhibitory power of the compounds.
Human PDE7 was partially purified from the HUT-78 cell line by following a method analogous to that described by Bloom and Beavo (Proc. Natl. Acad. Sci. USA, (1996) 93, 14188-14192). The enzyme preparation obtained is stored at −80° C. in a buffer comprising 20 mM of Tris-HCl (pH 7.0), 5 mM of MgCl2, 4 mM of EDTA, 1 mM of dithiothreitol and 20% of glycerol. […] The Michaelis constant (Km) of PDE7 for cAMP, measured using the radiochemical assay described below, is 21 nM.
The compounds of formula (I) to be tested as PDE7 inhibitors are dissolved in DMSO at a concentration of 10 mM. These solutions are subsequently diluted in cascade in DMSO in order to obtain solutions with the desired concentrations. The latter are subsequently diluted to one-twentieth in the assay buffer to give 5% DMSO solutions. The latter are finally diluted to one-fifth in the enzymatic assay.
The assay is carried out in 1.5 ml Eppendorf tubes comprising 40 mM of Tris-HCl (pH 7.5), 15 mM of MgCl2, 1 mM of EGTA, 0.5 mg/ml of bovine serum albumin, […] of [^3H]-cAMP (corresponding to a cAMP concentration of between 15 and 25 nM), 10 μM of rolipram and PDE7 in a final volume of 100 μl. The assay is carried out in the absence (control sample) or in the presence (treated sample) of the compounds tested as PDE7 inhibitors. The final concentration of DMSO in the assay is 2%. The reaction is initiated by addition of enzyme and the samples are maintained at ambient temperature for 30 minutes. The enzymatic dilution is adjusted so as to obtain a degree of conversion of 10 to 15%. The enzymatic reaction is halted by immersion of the stoppered Eppendorf tubes in a water bath at 100° C. for 3 minutes. Blanks (reaction halted immediately after addition of the enzyme) are included in each experiment. The samples are subsequently centrifuged at 10 000×g for 1 minute and an aliquot portion of 10 μl of supernatant is deposited 2 cm from the bottom edge of a sheet of PEI cellulose on which 10 μg of cAMP and 10 μg of 5′-AMP have been deposited beforehand. In order to facilitate the migration and to make it easier to cut out the strips of PEI cellulose comprising the 5′-AMP, which take place subsequently, 18 migration lanes with a width of 1 cm are delimited per plate by scraping the cellulose with a spatula over a width of 1 mm. The plates are developed over their entire length with a 0.30 M solution of LiCl in water by ascending chromatography. The 5′-AMP (Rf=0.20) and the cAMP (Rf=0.47) are visualized under UV light at 254 nm. The strips of PEI cellulose comprising the 5′-AMP are cut out and the nucleotide is quantitatively extracted in counting flasks with 2 ml of a solution which is 16M in formic acid and 2M in ammonium formate in water (rotary stirrer for 15 min). After addition of 10 ml of scintillation liquid (OptiPhase HiSafe 3 from Perkin-Elmer/Wallac), the radioactivity is counted using a liquid scintillation counter (model 1414, Perkin-Elmer/Wallac). Each assay is carried out in duplicate. […]

PDE8 = PDE8 enzymatic assay equivalent to that described for PDE7; assay type: biochemical
CLL-PBMCs = details: PBMCs of patients suffering from chronic lymphocytic leukaemia; cited from earlier work
PBMCs of normal subjects = details: cited from earlier work
[2] = human PDE7 partially purified from HUT-78 cells, 10 μM rolipram present, read-out: IC50 (inhibition of PDE7)
[3] = table comparing PDE7 and PDE8, read-out: IC50 PDE7

IC50 (Human PDE7; [2])	SMILES	IC50 [1]	other results
15 nM	COc1ccc(Cn2c(=O)c3cc(OCC(F)F)ccc3n(C3CCN(C=O)CC3)c2=O)cc1OC [No. 16, 4-[6-(2,2-difluoroethoxy)-3-(3,4-dimethoxybenzyl)-2,4-dioxo-3,4-dihydroquinazolin-1(2H)-yl]piperidine-1-carbaldehyde]	1300 nM	
6.7 nM	COc1ccc(Cn2c(=O)c3cc(OC(F)F)ccc3n(C3CCN(C=O)CC3)c2=O)cc1OC [No. 111, 4-[6-(difluoromethoxy)-3-(3,4-dimethoxybenzyl)-2,4-dioxo-3,4-dihydroquinazolin-1(2H)-yl]piperidine-1-carbaldehyde]		
39 nM	COc1ccc(Cn2c(=O)c3cc(OC(CF)CF)ccc3n(C3CCN(C=O)CC3)c2=O)cc1OC [No. 11, 4-[3-(3,4-dimethoxybenzyl)-6-[2-fluoro-1-(fluoromethyl)ethoxy]-2,4-dioxo-3,4-dihydroquinazolin-1(2H)-yl]piperidine-1-carbaldehyde]	900 nM	IC50 (PDE8): 140 nM
89 nM	COc1ccc(Cn2c(=O)c3cc(OCCO)ccc3n(C3CCN(C=O)CC3)c2=O)cc1OC [No. 72, 4-[3-(3,4-dimethoxybenzyl)-6-(2-hydroxyethoxy)-2,4-dioxo-3,4-dihydroquinazolin-1(2H)-yl]piperidine-1-carbaldehyde]		

Continued, molecule first:

SMILES	IC50 (Human PDE7; [2])	IC50 [1]	other results
COc1ccc(Cn2c(=O)c3cc(OC(C)C#N)ccc3n(C3CCN(C=O)CC3)c2=O)cc1OC (stereo not drawn) [No. 1, 2-{[3-(3,4-dimethoxybenzyl)-1-(1-formylpiperidin-4-yl)-2,4-dioxo-1,2,3,4-tetrahydroquinazolin-6-yl]oxy}propanenitrile]		400 nM	
COc1ccc(Cn2c(=O)c3cc(CNC(C)=O)ccc3n(C3CCN(C=O)C3)c2=O)cc1OC (stereo not drawn) [No. 77, N-{[3-(3,4-dimethoxybenzyl)-1-(1-formylpyrrolidin-3-yl)-2,4-dioxo-1,2,3,4-tetrahydroquinazolin-6-yl]methyl}acetamide]	820 nM		
COc1cc(Cn2c(=O)c3cc(OC(CF)CF)ccc3n(C3CCN(C=O)CC3)c2=O)ccc1OCC(=O)N1CCCCC1 [No. 251, 4-{6-[2-fluoro-1-(fluoromethyl)ethoxy]-3-[3-methoxy-4-(2-oxo-2-(piperidin-1-yl)ethoxy)benzyl]-2,4-dioxo-3,4-dihydroquinazolin-1(2H)-yl}piperidine-1-carbaldehyde]			IC50 (Human PDE7; [3]): 46 nM
COc1ccc(Cn2c(=O)c3c(Cl)cc(Cl)cc3n(C3CCN(C=O)CC3)c2=O)cc1OC [No. 97, 4-[5,7-dichloro-3-(3,4-dimethoxybenzyl)-2,4-dioxo-3,4-dihydroquinazolin-1(2H)-yl]piperidine-1-carbaldehyde]	61 nM		
Cc1ccc([N+](=O)[O-])cc1S(=O)(=O)N(C)C [BRL-50481]			apoptosis of CLL-PBMCs (CLL-PBMCs): induces in a dose-dependent way the apoptosis; effect on PBMCs of normal subjects (PBMCs of normal subjects): without effect
N#Cc1cc(Cn2c(=O)c3cc(OC(CF)CF)ccc3n(C3CCN(C=O)CC3)c2=O)ccc1-c1ccccc1 [No. 294, 4-({6-[2-fluoro-1-(fluoromethyl)ethoxy]-1-(1-formylpiperidin-4-yl)-2,4-dioxo-1,4-dihydroquinazolin-3(2H)-yl}methyl)biphenyl-2-carbonitrile]			IC50 (Human PDE7; [3]): 37 nM; IC50 (PDE8): 15 nM
